Measured values published in PubChem BioAssay AID1918943 (Molecular Pharmacology Branch, DTP, NCI, 2023).

Tested on: 855422-203-R-J1-PDC complex spheroid viability
Assay: Anticancer human tumor 855422-203-R-J1-PDC patient-derived bladder carcinoma cell line growth inhibition
Details: for IC50: curve of first compound; for viability, T/C: stronger effect = lower value
Procedure, shortened: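 Drug combinations with the LSD1 inhibitor iadademstat tested on tumor cells co-cultured as spheroids with endothelial cells and mesenchymal stem cells. Concentrations descended in half-log increments from clinical Cmax or 10 microM.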
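Note: drug exposure lasted 7 days starting on day 3 after seeding.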
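Throughout, for viability, T/C: luminescence viability as percent of DMSO vehicle wells = 100%.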

COc1cc(C2c3cc4c(cc3C(OC3OC5COC(C)OC5C(O)C3O)C3COC(=O)C23)OCO4)cc(OC)c1O (stereo not given) + NC1CC1c1ccc(-c2cccc(O)c2)cc1
IC50 (second compound 0.1 µM): 148 nM
IC50 (second compound 0.316 µM): 155 nM
IC50 (second compound 1 µM): 129 nM
IC50 (second compound 3.16 µM): 119 nM
IC50 (second compound 10 µM): 92.1 nM
viability, T/C (second compound 0.1 µM, first compound 0.00949 µM): 96.3%
viability, T/C (second compound 0.1 µM, first compound 0.03 µM): 98.3%
viability, T/C (second compound 0.1 µM, first compound 0.0949 µM): 59.5%
viability, T/C (second compound 0.1 µM, first compound 0.3 µM): 31.1%
viability, T/C (second compound 0.1 µM, first compound 0.949 µM): 19.7%
viability, T/C (second compound 0.1 µM, first compound 3 µM): 10.7%
viability, T/C (second compound 0.316 µM, first compound 0.00949 µM): 101%
viability, T/C (second compound 0.316 µM, first compound 0.03 µM): 102%
viability, T/C (second compound 0.316 µM, first compound 0.0949 µM): 60.9%
viability, T/C (second compound 0.316 µM, first compound 0.3 µM): 32.6%
viability, T/C (second compound 0.316 µM, first compound 0.949 µM): 19.7%
viability, T/C (second compound 0.316 µM, first compound 3 µM): 11.6%
viability, T/C (second compound 1 µM, first compound 0.00949 µM): 91.6%
viability, T/C (second compound 1 µM, first compound 0.03 µM): 95.8%
viability, T/C (second compound 1 µM, first compound 0.0949 µM): 55.4%
viability, T/C (second compound 1 µM, first compound 0.3 µM): 28.9%
viability, T/C (second compound 1 µM, first compound 0.949 µM): 17.6%
viability, T/C (second compound 1 µM, first compound 3 µM): 10.9%
viability, T/C (second compound 3.16 µM, first compound 0.00949 µM): 100%
viability, T/C (second compound 3.16 µM, first compound 0.03 µM): 96.9%
viability, T/C (second compound 3.16 µM, first compound 0.0949 µM): 52.3%
viability, T/C (second compound 3.16 µM, first compound 0.3 µM): 27.9%
viability, T/C (second compound 3.16 µM, first compound 0.949 µM): 16.2%
viability, T/C (second compound 3.16 µM, first compound 3 µM): 8.34%
viability, T/C (second compound 10 µM, first compound 0.00949 µM): 99.5%
viability, T/C (second compound 10 µM, first compound 0.03 µM): 97%
viability, T/C (second compound 10 µM, first compound 0.0949 µM): 46.5%
viability, T/C (second compound 10 µM, first compound 0.3 µM): 26.6%
viability, T/C (second compound 10 µM, first compound 0.949 µM): 18.4%
viability, T/C (second compound 10 µM, first compound 3 µM): 9.12%

CC[C@@]1(O)C(=O)OCc2c1cc1n(c2=O)Cc2cc3c(CN(C)C)c(O)ccc3nc2-1 + NC1CCC(NC2CC2c2ccccc2)CC1
IC50 (second compound 0.1 µM): 7.48 nM
IC50 (second compound 0.316 µM): 6.91 nM
IC50 (second compound 1 µM): 7.51 nM
IC50 (second compound 3.16 µM): 6.75 nM
IC50 (second compound 10 µM): 6.22 nM
viability, T/C (second compound 0.1 µM, first compound 0.000316 µM): 89.9%
viability, T/C (second compound 0.1 µM, first compound 0.001 µM): 93.6%
viability, T/C (second compound 0.1 µM, first compound 0.00316 µM): 82.5%
viability, T/C (second compound 0.1 µM, first compound 0.01 µM): 38.8%
viability, T/C (second compound 0.1 µM, first compound 0.0316 µM): 27.5%
viability, T/C (second compound 0.1 µM, first compound 0.1 µM): 22.9%
viability, T/C (second compound 0.316 µM, first compound 0.000316 µM): 90.9%
viability, T/C (second compound 0.316 µM, first compound 0.001 µM): 83.9%
viability, T/C (second compound 0.316 µM, first compound 0.00316 µM): 77.7%
viability, T/C (second compound 0.316 µM, first compound 0.01 µM): 36.8%
viability, T/C (second compound 0.316 µM, first compound 0.0316 µM): 24.9%
viability, T/C (second compound 0.316 µM, first compound 0.1 µM): 21.2%
viability, T/C (second compound 1 µM, first compound 0.000316 µM): 89.1%
viability, T/C (second compound 1 µM, first compound 0.001 µM): 80%
viability, T/C (second compound 1 µM, first compound 0.00316 µM): 78.5%
viability, T/C (second compound 1 µM, first compound 0.01 µM): 39.9%
viability, T/C (second compound 1 µM, first compound 0.0316 µM): 32.6%
viability, T/C (second compound 1 µM, first compound 0.1 µM): 21.4%
viability, T/C (second compound 3.16 µM, first compound 0.000316 µM): 77.4%
viability, T/C (second compound 3.16 µM, first compound 0.001 µM): 83.5%
viability, T/C (second compound 3.16 µM, first compound 0.00316 µM): 74.5%
viability, T/C (second compound 3.16 µM, first compound 0.01 µM): 37.1%
viability, T/C (second compound 3.16 µM, first compound 0.0316 µM): 25.5%
viability, T/C (second compound 3.16 µM, first compound 0.1 µM): 21.1%
viability, T/C (second compound 10 µM, first compound 0.000316 µM): 79.3%
viability, T/C (second compound 10 µM, first compound 0.001 µM): 79.2%
viability, T/C (second compound 10 µM, first compound 0.00316 µM): 66%
viability, T/C (second compound 10 µM, first compound 0.01 µM): 37.2%
viability, T/C (second compound 10 µM, first compound 0.0316 µM): 26.9%
viability, T/C (second compound 10 µM, first compound 0.1 µM): 15.9%
